Data from US20240409935A1, “Atg8ylation coordinates stress granule formation and mTOR inactivation in response to lysosomal damage” (priority 2023, published 2024).
Residues, ends and D or L forms follow the SMILES beside them. *: point of attachment. βNA = c1ccc2cc(N*)ccc2c1

Columns and labels:
[1] = system: G3BP1 puncta (stress granules) in U2OS cells; test: HCM quantification of G3BP1 puncta (stress granule formation) in U2OS cells; assay type: cell-based, human; details: for SG formation response (G3BP1 puncta): agent alone for 30 min (2 mM LLOMe, 200 μM GPN, 400 μg/mL silica, 4 mM LOMe)
[2] = system: eIF2α (S51) phosphorylation; test: Immunoblot analysis of eIF2α (S51) phosphorylation in U2OS cells; assay type: cell-based, human
TFEB = TFEB nuclear translocation (HCM) and TFEB (S142) phosphorylation in Huh7 cells; assay type: cell-based, human; details: 530 nM AZD6244 for 2 h, 1 mM LLOMe for 30 min
Description: FIGS. 2SA-2SG show the cellular transcriptional response during lysosomal damage. FIG. 2SA RNAseq analysis of the change on gene expression in HEK293T cells in response to 1 mM LLOMe treatment for 30 min. […] The dotted line indicates the significance cut-off (P<0.05). […] Ctrl, control (untreated cells). […] Blue: nuclei, Hoechst 33342. Red: anti-TFEB antibody, Alexa Fluor 568. White masks, computer-algorithm-defined cell boundaries. Pink masks, computer-identified nuclear TFEB based on the average intensity of Alexa Fluor 568 fluorescence. […] Red masks, computer-identified G3BP1 puncta. […] Red masks, computer-identified G3BP1 puncta. Ctrl, control (untreated cells). Data, means±SEM; HCM: n≥3 (each experiment: 500 valid primary objects/cells per Well, ≥5 Well s/sample). **p<0.01, ANOVA.

[3] = system: ALIX puncta in U2OS cells; test: HCM quantification of ALIX puncta in U2OS cells; assay type: cell-based, human; details: 15 μM BAPTA-AM for 1 h, then 2 mM LLOMe for 30 min
Description: Cells Were treated with 2 mM LLOMe for 30 min. White masks, algorithm-defined cell boundaries; red masks, computer-identified G3BP1 puncta. […] Cells Were treated with 2 mM LLOMe for 30 min. White masks, algorithm-defined cell boundaries; green masks, computer-identified ALIX puncta. NT, untreated cells. Data, means±SEM (n=3); HCM: n≥3 (each experiment: 500 valid primary objects/cells per Well, ≥5 Well s/sample). †p≥0.05 (not significant), **p<0.01, ANOVA. See also FIG. 11.

[4] = system: G3BP1 puncta in THP-1 cells; test: Stress granule formation in THP-1 cells; assay type: cell-based, human
Description: (§1) FIGS. 12SA-12SF. Stress granules are important for cell survival in response to lysosomal damage in disease states. […] White masks, algorithm-defined cell boundaries; red masks, computer-identified LTR puncta. […] White masks, algorithm-defined cell boundaries; green masks, computer-identified ALIX puncta. […] White masks, algorithm-defined cell boundaries; red masks, computer-identified G3BP1 puncta. […] Cells Were treated with 200 μg/mL silica for 4 h in the presence or absence of 100 nM ISRIB, and then stained with propidium iodide PI (dead cells) and Hoechst-33342 (total cells). White masks, algorithm-defined cell boundaries; red masks, computer-identified PI^+ nuclei. […]
How does SG formation affect cell fate during lysosomal damage? […] The inventors quantified the number of SGs using the canonical SG marker polyA RNA (Ivanov et al., 2019) via high-content microscopy (HCM) (FIG. S1B) and verified the depletion of SG formation in ΔΔG3BP1/2 cells when exposed to the lysosome-specific damaging agent L-leucyl-L-leucine methyl ester (LLOMe) (Jia et al., 2022; Tan et al., 2022; Thiele et al., 1990) (FIG. 7SB). A propidium iodide (PI) uptake assay measuring plasma membrane integrity (Crowley et al., 2016; Liu et al., 2023) was adapted to quantify cell survival during lysosomal damage using HCM. […]

ATF4 = ATF4 expression in THP-1 cells; assay type: cell-based, human
THP-1 cells = test: Cell survival of THP-1 cells; assay type: cell-based
[5] = system: human peripheral blood monocyte-derived macrophages (hMDM); test: PI uptake cell death assay (HCM) in hMDM; assay type: cell-based
Description: Cells Were treated with 2 mM LLOMe for 30 min, and then stained with propidium iodide (PI) (dead cells) and Hoechst-33342 (total cells). White masks, algorithm-defined cell boundaries (primary objects); red masks, computer-identified PI^+ nuclei (target objects). […] Cells Were treated with 2 mM LLOMe for 30 min. […] Cells Were treated with 2 mM in the presence or absence of 10 μg/ml cycloheximide (CHX) for 30 min, and then stained with PI (dead cells) and Hoechst-33342 (total cells). […] Scale bar, 10 μm. […] Cells Were treated with 2 mM LLOMe with or without CHX for 30 min, and then stained using Live/Dead™ stain kit (ThermoFisher). […] Cells Were treated with 2 mM LLOMe for 30 min, and then stained with PI (dead cells), Hoechst-33342 (total cells) or eIF4G. (i) HCM images: white masks, algorithm-defined cell boundaries; green masks, computer-identified eIF4G puncta; red masks, computer-identified PI^+ nuclei (target objects); (ii and iii) corresponding HCM quantification. […] Cells Were treated with 2 mM LLOMe for 30 min. […] CTR, control; NT, untreated cells. Data, means±SEM (n=3); HCM: n≥3 (each experiment: 500 valid primary objects/cells per Well, ≥5 Well s/sample). †p≥0.05 (not significant), *p<0.05, **p<0.01, ANOVA. See also FIG. 7S.
as §1

[6] = system: NUFIP2, G3BP1 and TIA1 on lysosomes; assay type: cell-based, human
[7] = system: Galectin-3 puncta in BMM cells; assay type: cell-based, murine
mTOR = test: mTOR/mTORC1 activity by phosphorylation of its substrates (4EBP1 S65, ULK1 S757, S6K1 T389) in U2OS cells; assay type: cell-based, human
[8] = system: human peripheral blood monocyte-derived macrophages (hMDM); details: 1 μg/ml cycloheximide
U2OS cells = test: LDH release assay in U2OS cells; assay type: cell-based, human; details: LLOMe plus cycloheximide
From the text: How does SG formation affect cell fate during lysosomal damage? The inventors utilized SG deficient U2OS cells (human osteosarcoma epithelial cell line) genetically lacking both G3BP1 and G3BP2 (ΔΔG3BP1/2) (Nancy Kedersha et al., 2016), which are essential factors for SG formation (Guillén-Boixet et al., 2020; Nancy Kedersha et al., 2016; P. Yang et al., 2020) (FIG. 7SA). The inventors quantified the number of SGs using the canonical SG marker polyA RNA (Ivanov et al., 2019) via high-content microscopy (HCM) (FIG. S1B) and verified the depletion of SG formation in ΔΔG3BP1/2 cells when exposed to the lysosome-specific damaging agent L-leucyl-L-leucine methyl ester (LLOMe) (Jia et al., 2022; Tan et al., 2022; Thiele et al., 1990) (FIG. 7SB). A propidium iodide (PI) uptake assay measuring plasma membrane integrity (Crowley et al., 2016; Liu et al., 2023) was adapted to quantify cell survival during lysosomal damage using HCM. […] This was additionally confirmed by using a lactate dehydrogenase (LDH) release assay measuring non-specific leak from cells (Chan et al., 2013; Kumar et al., 2018) (FIG. 1B). […] Elevated cell death, as quantified by PI uptake assay (FIG. 1F (i, iii)) and the LDH release assay (FIG. 1G), was detected in G3BP1/2^DKD in response to LLOMe treatment. […]

[9] = system: human peripheral blood monocyte-derived macrophages (hMDM); details: hemozoin (10.0 mg/mL) 4 h, 1 μg/ml cycloheximide
PKR = test: LysoIP immunoblotting of PKR and eIF2α phosphorylation on damaged lysosomes from HEK293T cells; assay type: cell-based, human; details: 1 mM LLOMe with 210 nM imidazolo-oxindole C16 for 1 h

## Nc1ncc2[nH]cnc2n1 [2-AP, 2-aminopurine]
[1]; 2-AP for 1 h followed by 2 mM LLOMe for 30 min
  SG formation in response to LLOMe treatment, with 2-AP: inhibited, in a dose-response fashion, SG formation
[2]; U2OS cells, 2-AP for 1 h followed by 2 mM LLOMe for 30 min
  eIF2α phosphorylation in cells treated with LLOMe, with PKR inhibitor: inhibited eIF2α phosphorylation

## Cn1cnc2c(F)c(Nc3ccc(Br)cc3Cl)c(C(=O)NOCCO)cc21 [AZD6244]
TFEB
  nuclear translocation of TFEB and dephosphorylation at Ser142: lysosomal damage compared with AZD6244: equal in magnitude

## CC(=O)OCOC(=O)CN(CC(=O)OCOC(C)=O)c1ccccc1OCCOc1ccccc1N(CC(=O)OCOC(C)=O)CC(=O)OCOC(C)=O [BAPTA-AM]
[3]
  ALIX puncta formation upon lysosomal damage, with BAPTA-AM: decrease in ALIX puncta formation
[1]; 15 μM BAPTA-AM for 1 h, then 2 mM LLOMe for 30 min
  SG formation during lysosomal damage, with BAPTA-AM: significant reduction in SG formation
[2]; U2OS cells, 15 μM BAPTA-AM for 1 h, then 2 mM LLOMe for 30 min
  eIF2α phosphorylation during lysosomal damage, with BAPTA-AM: significant reduction

## NCC(=O)N[C@@H](Cc1ccccc1)C(=O)Nc1ccc2ccccc2c1 [GPN, glycyl-L-phenylalanine-2-naphthyl amide] (H-Gly-Phe-βNA)
[1]
  SG formation response (G3BP1 puncta): strong SG formation response

## O=C(COc1ccc(Cl)cc1)N[C@H]1CC[C@@H](NC(=O)COc2ccc(Cl)cc2)CC1 [ISRIB, N,N′-((1s,4s)-cyclohexane-1,4-diyl)bis(2-(4-chlorophenoxy)acetamide)]
[4]
  SG formation upon lysosomal damage, with ISRIB: prevented SG formation
ATF4
  ATF4 expression levels upon lysosomal damage, with ISRIB: reduction in ATF4 expression levels
THP-1 cells
  cell survival upon lysosomal damage, with ISRIB: decrease in cell survival
[5]; 10 μg/mL tau oligomer for 4 h, 100 nM ISRIB
  cell death by PI uptake assay during tau oligomer treatment, with ISRIB: comparable effect on cell death
[5]; 200 μg/mL silica for 4 h, 100 nM ISRIB
  cell death by PI uptake assay during silica treatment, with ISRIB: comparable effect on cell death

## COC(=O)[C@@H](N)CC(C)C [LOMe]
[1]
  SG formation response (G3BP1 puncta): did not induce SG formation

## O=[As][O-].[Na+] [arsenite, NaAsO2]
[6]
  enrichment of NUFIP2, G3BP1 and TIA1 on purified lysosomes: not on lysosomes purified from cells treated with arsenite
[7]
  lysosomal damage monitored by Galectin-3 response: did not induce lysosomal damage
mTOR
  mTORC1 activity under arsenic stress: activating mTORC1 activity
[2]
  eIF2α phosphorylation under arsenic stress: led to eIF2α phosphorylation

## C[C@@H]1C[C@@H]([C@H](O)CC2CC(=O)NC(=O)C2)C(=O)[C@@H](C)C1 [cycloheximide]
[8]; 10 μg/mL tau oligomer for 4 h
  cell death (AMNIS, Live/Dead) during tau oligomer treatment, with cycloheximide: augmented cell death
[8]; 200 μg/mL silica for 4 h
  cell death (AMNIS, Live/Dead) during silica treatment, with cycloheximide: augmented cell death
[5]; 2 mM LLOMe with 10 μg/ml cycloheximide for 30 min
  cell death by PI uptake assay during LLOMe treatment, with cycloheximide: significant increase in cell death
U2OS cells
  cell survival by LDH release, with cycloheximide during lysosomal damage: increased LDH release
[1]
  SG formation (G3BP1 puncta) following LLOMe treatment, with cycloheximide: inhibited SG formation
[9]
  cell death by LDH release assay in response to hemozoin, with cycloheximide: increased cell death

## O=C1Nc2ccc3ncsc3c2/C1=C/c1cnc[nH]1 [imidazolo-oxindole C16]
[1]; 210 nM imidazolo-oxindole C16 for 2 h followed by 2 mM LLOMe for 30 min
  SG formation during lysosomal damage, with C16: reduced SG formation
PKR
  phosphorylation of both PKR and eIF2α on damaged lysosomes, with C16: effectively blocked
